{"source": "patent US5057522A", "about": "“Anti-hypersensitive N2-tetrazole-β-glucuronide analog” (Merck & Co., Inc., priority 1990, dated 1991)", "molecular_target": "T1, Angiotensin II (A II) receptor (Oryctolagus cuniculus, UniProt P34976)", "T1 construct": "membrane preparation derived from rabbit aortae; tissue Pel-Freeze Biologicals; host or cells: rabbit aorta membrane preparation", "T1 sequence (P34976 1-359)": "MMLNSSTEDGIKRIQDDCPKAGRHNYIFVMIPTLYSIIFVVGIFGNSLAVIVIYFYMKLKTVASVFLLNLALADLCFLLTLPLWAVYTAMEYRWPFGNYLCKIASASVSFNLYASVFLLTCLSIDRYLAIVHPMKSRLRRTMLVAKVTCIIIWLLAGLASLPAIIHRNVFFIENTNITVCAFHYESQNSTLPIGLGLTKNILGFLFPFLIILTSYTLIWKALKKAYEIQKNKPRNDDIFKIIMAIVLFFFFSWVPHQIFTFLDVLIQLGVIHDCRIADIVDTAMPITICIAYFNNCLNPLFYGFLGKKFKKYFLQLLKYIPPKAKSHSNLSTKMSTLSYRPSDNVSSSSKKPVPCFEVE", "test": "Receptor binding assay using rabbit aortae membrane preparation (displacement of 125I-Sar1 Ile8-angiotensin II; \"IC50\" assay)", "method": "This assay is also referred to herein as the \"IC50 \" assay.\nRECEPTOR BINDING ASSAY USING RABBIT AORTAE MEMBRANE PREPARATION\nThree frozen rabbit aortae (obtained from Pel-Freeze Biologicals) were suspended in 5 mM Tris-0.25M Sucrose, pH 7.4 buffer (50 ml) homogenized, and then centrifuged. The mixture was filtered through a cheesecloth and the supernatant was centrifuged for 30 minutes at 20,000 rpm at 4° C. The pellet thus obtained was resuspended in 30 ml of 50 mM Tris-5 mM MgCl2 buffer containing 0.2% Bovine Serum Albumin and 0.2 mg/ml Bacitration and the suspension was used for 100 assay tubes. Samples tested for screening were done in duplicates. To the membrane preparation (0.25 ml) there was added ^125 I-Sar^1 Ile^8 -angiotensin II [obtained from New England Nuclear] (10 ul; 20,000 cpm) with or without the test sample and the mixture was incubated at 37° C. for 90 minutes. The mixture was then diluted with ice-cold 50 mM Tris-0.9% NaCl, pH 7.4 (4 ml) and filtered through a glass fiber filter (GF/B Whatman 2.4\" diameter). The filter was soaked in scintillation cocktail (10 ml) and counted for radioactivity using Packard 2660 Tricarb liquid scintillation counter. […]", "data": [{"smiles": "CCc1nc2c(C)cc(C)nc2n1Cc1ccc(-c2ccccc2-c2nnn([C@@H]3O[C@H](C(=O)O)[C@@H](O)[C@H](O)[C@H]3O)n2)cc1", "note": "[compound (I)]", "values": [{"measurement": "A II antagonist activity by the IC50 assay", "value": "exhibits A II antagonist activity"}, {"measurement": "IC50", "setting": "37° C., 90 minutes, read-out: inhibitory concentration (IC50) giving 50% displacement of the total specifically bound 125I-Sar1 Ile8-angiotensin II", "value": "< 50", "unit": "µM"}]}]}
